Test results: patent US8349846B2, “Fused pyrimidine derivatives as TRPV3 modulators” (Glenmark Pharmaceuticals, S.A., priority 2008, dated 2013)
Counter-ions that a name gives are not always drawn.

Molecular target: T1, Human TRPV3 (Homo sapiens, UniProt Q8NET8)
T1 construct: expressed in transfected cells; host or cells: CHO cells (selected with G-418)
T1 sequence (Q8NET8 1-790): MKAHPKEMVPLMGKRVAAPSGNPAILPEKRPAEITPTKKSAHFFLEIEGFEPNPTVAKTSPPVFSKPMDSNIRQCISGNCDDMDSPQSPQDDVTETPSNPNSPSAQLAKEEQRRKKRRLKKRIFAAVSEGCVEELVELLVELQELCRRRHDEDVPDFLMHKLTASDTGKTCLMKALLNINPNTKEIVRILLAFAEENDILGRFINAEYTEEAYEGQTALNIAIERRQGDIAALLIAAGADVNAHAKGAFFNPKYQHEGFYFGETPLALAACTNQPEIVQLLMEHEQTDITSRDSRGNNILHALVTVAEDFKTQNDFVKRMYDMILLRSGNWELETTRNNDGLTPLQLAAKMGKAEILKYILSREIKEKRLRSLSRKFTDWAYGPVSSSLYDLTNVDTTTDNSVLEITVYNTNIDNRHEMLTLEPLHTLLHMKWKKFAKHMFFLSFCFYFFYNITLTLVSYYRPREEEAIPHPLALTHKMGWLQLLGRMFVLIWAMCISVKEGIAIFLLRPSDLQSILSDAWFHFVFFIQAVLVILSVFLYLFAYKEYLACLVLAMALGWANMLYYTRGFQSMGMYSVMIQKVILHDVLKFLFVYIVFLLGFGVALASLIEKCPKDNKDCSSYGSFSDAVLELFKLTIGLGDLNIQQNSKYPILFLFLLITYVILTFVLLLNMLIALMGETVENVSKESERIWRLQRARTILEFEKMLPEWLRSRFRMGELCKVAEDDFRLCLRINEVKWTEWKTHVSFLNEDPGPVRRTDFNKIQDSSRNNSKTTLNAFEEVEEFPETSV
Assay: Screening for TRPV3 antagonist using the 45Calcium uptake assay (inhibition of 2-APB induced cellular uptake of radioactive calcium)
Assay type: cell-based
Conditions: Human TRPV3 expressing CHO cells, 2-APB 500 μM; for inhibition at 1 µM / inhibition at 10 µM: CHO; for inhibition at 1 µM: read-out: Percentage inhibition at 1.0 μM; for inhibition at 10 µM: 10.0 μM test compound, read-out: Percentage inhibition at 10.0 μM
Source text: The illustrative examples of the present invention are screened for TRPV3 activity according to a modified procedure described in Tóth, A., Kedei, N., Wang, Y. and Blumberg, P. M. Life Sciences (2003), 73, 487-498. The screening of the compounds can be carried out by other methods and procedures known to a person skilled in the art. Such screening methods may be found in (a) Hu, H.-Z. et al. J. Biol. Chem. (2004), 279, 35741-35747; (b) Smith, G. D. et al. Nature (2002), 418, 186-190; (c) Peier, A. M. et al. Science (2002), 296, 2046-2049.
Screening for TRPV3 Antagonist Using the ^45Calcium Uptake Assay:
The inhibition of TRPV3 receptor activation was followed as inhibition of 2-aminoethxydiphenylborate (2-APB) induced cellular uptake of radioactive calcium. Test compounds were dissolved in dimethyl sulfoxide (DMSO) to prepare 20 mM stock solution and then diluted using plain medium with DMEM/F-12 containing 1.8 mM CaCl2 to get desired concentration. Final concentration of DMSO in the reaction was 0.5% (v/v). Human TRPV3 expressing CHO cells were grown in DMEM/F-12 medium with 10% FBS, 1% penicillin-streptomycin solution, 400 μg/ml of G-418. Cells were seeded 24 h prior to the assay in 96 well plates so as to get ˜50,000 cells per well on the day of experiment. Cells were treated with test compounds for 10 minutes followed by addition of 2-APB at a final concentration of 500 μM and 5 μCi/ml ^45Ca^+2 for 4 minutes. Cells were washed and lysed using buffer containing 1% Triton X-100, 0.1% deoxycholate and 0.1% SDS. Radioactivity in the lysate was measured in Packardt Top count after addition of liquid scintillant. Concentration response curves were plotted as a % of maximal response obtained in the absence of test antagonist. IC50 value was calculated from concentration response curve by nonlinear regression analysis using GraphPad PRISM software.
Percentage inhibition at concentrations of 1.0 μM and 10.0 μM are given in the table along with IC50 (nM) values for selected examples.

Compound | inhibition at 1 µM (1.0 μM test compound) | inhibition at 10 µM | IC50 | Percentage inhibition at 1.0 μM (1.0 μM test compound)
O=c1c(-c2ccccc2)c(/C=C/c2ccc(Cl)cc2)nc2ccccn12 [Example 1, 2-[(E)-2-(4-Chlorophenyl)vinyl]-3-phenyl-4H-pyrido[1,2-a]pyrimidin-4-one] | 0.5% | 19.4% |  | 
O=c1c(-c2ccc(C(F)(F)F)cc2)c(/C=C/c2cccnc2)nc2ccccn12 [Example 2, 2-{(E)-2-(Pyridin-3-yl)vinyl}-3-(4-trifluoromethyl)phenyl-4H-pyrido[1,2-a]pyrimidin-4-one] | 5.7% | 11.2% |  | 
O=c1c(-c2ccc(C(F)(F)F)cc2)c(/C=C/c2cccs2)nc2ccccn12 [Example 3, 2-[(E)-2-(2-Thienyl)vinyl]-3-[4-(trifluoromethyl)phenyl]-4H-pyrido[1,2-a]pyrimidin-4-one] | 14.4% | 77.9% | 1000 to 2500 nM | 
O=c1c(-c2ccc(C(F)(F)F)cc2)c(/C=C/c2cccc3c2OCO3)nc2ccccn12 [Example 4, 2-[(E)-2-(1,3-Benzodioxol-4-yl)vinyl]-3-[4-(trifluoromethyl)phenyl]-4H-pyrido[1,2-a]pyrimidin-4-one] | 25.3% | 74% |  | 
COc1cccc(/C=C/c2nc3ccccn3c(=O)c2-c2ccc(C#N)cc2)c1OC1CCCC1 [Example 5, 4-{2-[(E)-2-[2-(Cyclopentyloxy)-3-methoxyphenyl)vinyl]-4-oxo-4H-pyrido[1,2-a]pyrimidin-3-yl}benzonitrile] |  | 76.2% |  | 41.6%
CCCOc1c(/C=C/c2nc3ccccn3c(=O)c2-c2ccc(C(F)(F)F)cc2)cccc1OC [Example 6] | 71.5% | 67.5% |  | 
CCCOc1c(/C=C/c2nc3ccccn3c(=O)c2-c2ccc(C#N)cc2)cccc1OC [Example 7] | 77.9% | 98.9% |  | 
CCCCOc1c(/C=C/c2nc3ccccn3c(=O)c2-c2ccc(C(F)(F)F)cc2)cccc1OC [Example 8] | 76.3% | 89.7% |  | 
CCCCOc1c(/C=C/c2nc3ccccn3c(=O)c2-c2ccc(OC(F)(F)F)cc2)cccc1OC [Example 9, 2-[(E)-2-[2-Butoxy-3-methoxyphenyl)vinyl]-3-[4-(trifluoromethoxy)phenyl]-4H-pyrido-[1,2-a]pyrimidin-4-one] | 74.6% | 89% | 500 to 1000 nM | 
CCCCOc1c(/C=C/c2nc3ccccn3c(=O)c2-c2ccc(C#N)cc2)cccc1OC [Example 10] | 82.8% | 100% |  | 
CCCCCOc1c(/C=C/c2nc3ccccn3c(=O)c2-c2ccc(C(F)(F)F)cc2)cccc1OC [Example 11] | 69% | 86.5% |  | 
CCCCCOc1c(/C=C/c2nc3ccccn3c(=O)c2-c2ccc(C#N)cc2)cccc1OC [Example 12, 4-{2-[(E)-2-[3-Methoxy-2-pentyloxyphenyl)vinyl]-4-oxo-4H-pyrido[1,2-a]pyrimidin-3-yl}benzonitrile] | 87.9% | 96.5% | < 500 nM | 
CCCCCCOc1c(/C=C/c2nc3ccccn3c(=O)c2-c2ccc(C(F)(F)F)cc2)cccc1OC [Example 13] | 58% | 77.3% |  | 
CCCCCCOc1c(/C=C/c2nc3ccccn3c(=O)c2-c2ccc(C#N)cc2)cccc1OC [Example 14] | 85.1% | 92.3% | < 500 nM | 
COc1cccc(/C=C/c2nc3ccccn3c(=O)c2-c2ccc(C(F)(F)F)cc2)c1OCCN(C)C [Example 15, 2-[(E)-2-{2-[2-(Dimethylamino)ethoxy]-3-methoxyphenyl}vinyl]-3-(4-trifluoromethylphenyl)-4H-pyrido[1,2-a]pyrimidin-4-one hydrochloride] | 0% | 31.7% |  | 
COc1cccc(/C=C/c2nc3ccccn3c(=O)c2-c2ccccc2)c1OCC1CC1 [Example 16, 2-{(E)-2-[2-(Cyclopropylmethoxy)-3-methoxyphenyl]vinyl}-3-phenyl-4H-pyrido[1,2-a]-pyrimidin-4-one] | 33.8% | 79.8% |  | 
COc1cccc(/C=C/c2nc3ccccn3c(=O)c2-c2ccc(C(F)(F)F)cc2)c1OCC1CC1 [Example 17] | 83.3% | 95.3% | < 500 nM | 
COc1cccc(/C=C/c2nc3ccccn3c(=O)c2-c2ccc(OC(F)(F)F)cc2)c1OCC1CC1 [Example 18] | 79.5% | 93.5% | < 500 nM | 
COc1cccc(/C=C/c2nc3ccccn3c(=O)c2-c2ccc(C#N)cc2)c1OCC1CC1 [Example 19] | 87.8% | 98.7% | < 500 nM | 
COc1cccc(/C=C/c2nc3ccccn3c(=O)c2-c2ccccc2)c1OC1CCCC1 [Example 20, 2-{(E)-2-[2-(Cyclopentyloxy)-3-methoxyphenyl]vinyl}-3-phenyl-4H-pyrido[1,2-a]-pyrimidin-4-one] | 45.9% | 76.7% | 1000 to 2500 nM | 
COc1cccc(/C=C/c2nc3ccccn3c(=O)c2-c2cc(F)cc(F)c2)c1OC1CCCC1 [Example 21, 2-{(E)-2-[2-(Cyclopentyloxy-3-methoxy)phenyl]vinyl}-3-(3,5-difluoro) phenyl-4H-pyrido[1,2-a]pyrimidin-4-one] | 27.2% | 39.3% |  | 
COc1cccc(/C=C/c2nc3ccccn3c(=O)c2-c2cccc(C(F)(F)F)c2)c1OC1CCCC1 [Example 22, 2-{(E)-2-[(2-Cyclopentyloxy-3-methoxy)phenyl]vinyl}-3-(3-trifluoromethyl)phenyl-4H-pyrido[1,2-a]pyrimidin-4-one] | 22.7% | 34.6% |  | 
COc1cccc(/C=C/c2nc3ccccn3c(=O)c2-c2ccc(C(F)(F)F)cc2)c1OC1CCCC1 [Example 23, 2-{(E)-2-[2-(Cyclopentyloxy)-3-methoxyphenyl]vinyl}-3-(4-trifluoromethyl)phenyl-4H-pyrido[1,2-a]pyrimidin-4-one] | 62.8% | 86.7% | 500 to 1000 nM | 
COc1cccc(/C=C/c2nc3ccccn3c(=O)c2-c2ccc(OC(F)(F)F)cc2)c1OC1CCCC1 [Example 24, 2-{(E)-2-[(2-Cyclopentyloxy-3-methoxy)phenyl]vinyl}-3-(4-trifluoromethoxy)phenyl-4H-pyrido[1,2-a]pyrimidin-4-one] | 20.6% | 3.6% | 1000 to 2500 nM | 
COc1cccc(/C=C/c2nc3ccccn3c(=O)c2-c2cccc(O)c2)c1OC1CCCC1 [Example 25, 2-{(E)-2-[2-(Cyclopentyloxy-3-methoxy)phenyl]vinyl}-3-(3-hydroxy)phenyl-4H-pyrido-[1,2-a]-pyrimidin-4-one] | 20.7% | 93.1% | 1000 to 2500 nM | 
COc1cccc(-c2c(/C=C/c3cccc(OC)c3OC3CCCC3)nc3ccccn3c2=O)c1 [Example 26, 2-{(E)-2-[(2-Cyclopentyloxy-3-methoxy)phenyl]vinyl}-3-(3-methoxy)phenyl-4H-pyrido-[1,2-a]pyrimidin-4-one] | 48% | 69.3% |  | 
